Patent US8399522B2, “3.2.1-bicyclo-octane compounds” (International Flavors & Fragrances Inc, priority 2010, dated 2013)

How the values were obtained:
Vapor pressure = type: physicochemical
[1] = Sweat malodor coverage, jar test ranked by sensory panel; set-up: species or system human; conditions: compound 10% in solvent; for Sweat Malodor, mean rank of malodor coverage: 8 oz jar, 1 hour equilibration, 15-18 panelists, scale 1 (No Coverage), 3 (Moderate Coverage), 5 (Excellent Coverage)
Procedure: (§1) Establishment of Malodor Models: It is known that the perspirative malodors of human body, particularly sweat, are associated with the production of several unpleasant smelling organic acids, particularly isovaleric acid (“IVA”). The commercial sample of this malodorous material (commercially available at Sigma-Aldrich Inc.) was thus used as a model compound to assess the effectiveness of sweat malodor counteractants. The mold/mildew malodor model was prepared based on applicant's proprietary formulations for assessing the effectiveness of mold/mildew malodor counteractants.
(§2) Preparation of Test Samples: Two aluminum dishes were placed in an 8 oz glass jar. A malodor material was pipetted into one aluminum dish, and a compound of the present invention diluted in a solvent (10%) or a solvent alone control was pipetted into the other aluminum dish. The jar was then capped and the samples were allowed to equilibrate for one hour before the testing.
(§3) Testing Procedure: Test samples were presented in a blind and random order to 15-18 internal panelists (consisting of men/women with an age range of 25 to 55). However, different odor samples were arranged in an alternative order (for example, sweat, mold/mildew, sweat, mold/mildew, and etc.).
(§4) The panelists were instructed to take the steps of i) sniff jars containing only the malodor materials for familiarization prior to the testing; ii) uncap a jar; iii) place their noses at a distance of about 3-4 inches above the opening; iv) take short sniffs for 3 seconds; and v) provide a rank of the malodor coverage using an intensity scale of 1 to 5, where 1 represents “No Coverage”, 3 represents “Moderate Coverage”, and 5 represents “Excellent Coverage”. The means for each sample was then calculated.

[2] = Mold/mildew malodor coverage, jar test ranked by sensory panel; set-up: species or system human; conditions: compound 10% in solvent; for Mold/Mildew Malodor, mean rank of malodor coverage: 8 oz jar, 1 hour equilibration, 15-18 panelists, scale 1 (No Coverage), 3 (Moderate Coverage), 5 (Excellent Coverage)
Procedure: as §1, §2, §3, §4

Structure (SMILES) | Vapor Pressure (Vapor pressure) | counteracting sweat malodor (in words) [1] | Sweat Malodor, mean rank of malodor coverage [1] | counteracting mold/mildew malodor (in words) [2] | Mold/Mildew Malodor, mean rank of malodor coverage [2]
CC12CCC(C1)C1(C)OC1C2 (centres unmarked) [Structure 1, 2,6-dimethyl-3-oxa-tricyclo[4.2.1.0*2,4*]nonane] | 2186 µg/L | effective | 3.59 | effective | 3.87
CC1C(=O)CC2(C)CCC1C2 (centres unmarked) [Structure 2, 1,4-dimethyl-bicyclo[3.2.1]octan-3-one] | 4305 µg/L | effective | 3.57 | effective | 3.63
CC1CC2(C)C3CCC(C)(C3)CC2O1 (centres unmarked) [Structure 4, 2,4,8-trimethyl-5-oxa-tricyclo [6.2.1.0*2,6*]undecane] | 1045 µg/L | effective | 3.11 | effective | 2.79
CC1C2CCC(C)(C2)CC12OCCO2 (centres unmarked) [Structure 5, 1,4-dimethyl-bicyclo[3.2.1]octan-3-dioxolane] | 1281 µg/L | effective | 2.92 | effective | 2.39
